Reference: patent US8007526B2, “Difunctionalized aromatic compounds and polymers therefrom” (Bezwada Biomedical, LLC, priority 2005, dated 2011)

Test: In vitro hydrolysis in Aldrich buffer at 100° C., monitored by TLC for disappearance of starting material
Type: physicochemical
Source text: In Vitro Hydrolysis of Functionalized Aromatics
A compound and a polymer of the present invention were examined for their rates of hydrolysis as described below.

COC(=O)COC(=O)COc1ccc(C(=O)OCC(=O)OC)cc1 [Example 14, 4-Methoxycarbonylmethoxycarbonylmethoxy-benzoic acid methoxycarbonyl methyl ester]
Hydrolyzed in (time to hydrolysis) (100 mg in 10 mL Aldrich pH 7.4 buffer): Hydrolyzed in 26.5 hours | Hydrolyzed in (time to hydrolysis) (100 mg in 10 mL Aldrich pH 9 buffer, 1% solution): Hydrolyzed in 5 hours
